Source: ChEMBL document CHEMBL1157943, “Oblongifolins A-D, polyprenylated benzoylphloroglucinol derivatives from Garcinia oblongifolia” (J Nat Prod, 2006)
Calls of active or inactive are those of the source. The rule behind the calls is not given here.

Assays:
[1] = Inhibition of microtubule disassembly
[2] = Inhibition of tubulin assembly at 10 mg/ml
[3] = Inhibition of microtubule disassembly at 10 mg/ml
[4] = Inhibition of tubulin assembly

| Compound | Activity [1] | IC50 [4] [µM] | other results |
| --- | --- | --- | --- |
| CC(C)=CCC/C(C)=C/C[C@H]1C[C@]2(CC=C(C)C)C(=O)[C@@](CC=C(C)C)(C(=O)C(C(=O)c3ccc(O)c(O)c3)=C2O)C1(C)C | inactive | – | inhibition [2]: 41% |
| C=C(C)[C@@H](CC=C(C)C)C[C@@]12C[C@@H](CC=C(C)C)C(C)(C)[C@@](CC=C(C)C)(C(=O)C(C(=O)c3ccc(O)c(O)c3)=C1O)C2=O [GARCINOL] | – | 97 | inhibition [3]: 46% |
| CC(C)=CCC/C(C)=C/C[C@@H]1C[C@@]2(C/C=C(\C)CCC=C(C)C)C(=O)[C@](CC=C(C)C)(C(=O)C(C(=O)c3ccc(O)c(O)c3)=C2O)C1(C)C [GUTTIFERONE B] | inactive | 53 | – |
| CC(C)=CCC/C(C)=C/C[C@@H]1C[C@]2(CC=C(C)C)C(=O)[C@@](CC=C(C)C)(C(=O)C(C(=O)c3ccc(O)c(O)c3)=C2O)C1(C)C [OBLONGIFOLIN B] | – | 69 | inhibition [3]: 7% |
| CC(C)=CCC/C(C)=C/C[C@@H]1C[C@]2(CC=C(C)C)C(=O)[C@@](CC=C(C)C)(C(=O)C(C(=O)c3ccc(O)c(O)c3)=C2O)[C@@]1(C)CCC=C(C)C [OBLONGIFOLIN C] | inactive | 53 | – |
| CC(C)=CCC/C(C)=C/C[C@H]1C[C@]2(C/C=C(\C)CCC=C(C)C)C(=O)[C@@](CC=C(C)C)(C(=O)C(C(=O)c3ccc(O)c(O)c3)=C2O)C1(C)C [OBLONGIFOLIN D] | inactive | 92 | – |
| CC(=O)O[C@H]1C(=O)[C@@]2(C)[C@H]([C@H](OC(=O)c3ccccc3)[C@]3(O)C[C@H](OC(=O)[C@H](O)[C@@H](NC(=O)c4ccccc4)c4ccccc4)C(C)=C1C3(C)C)[C@]1(OC(C)=O)CO[C@@H]1C[C@@H]2O [PACLITAXEL] | – | – | IC50 [1]: 0.5 µM; Activity [4]: inactive |
